Results as given in patent US20210290680A1, “METHODS AND COMPOSITIONS FOR MODULATING CELLULAR AGING” (Dorian Therapeutics, Inc., priority 2019, published 2021).

Tested on: CD69
Assay: Exhaustion marker CD69 by flow cytometry
Type: cell-based, human
Conditions: for CD69%: day 16, n=3; for reduction of exhaustion marker CD69 expression (shCtrl vs shRNA): primary T cells, day 20
Experimental: Primary T cells were activated as described (Example 3), transduced with a lentivirus encoding either a shUSP16 #1, shUSP16 #2 or a non-targeting shRNA (shCtrl) and cells were selected with puromycin at day 6. At day 20, T cells were stained for CD69-Allophycocyanin (Biolegend) and T cells analyzed by MACSQuant (Miltenyi Biotec) (FIG. 19). Three primary T cell cultures were analyzed.
Primary T cells were activated as described (Example 3), transduced with a lentivirus encoding for either a CD19.CAR or a GD2.CAR co-expressing shUSP16 #1, shUSP16 #2 or a scrambled shRNA (Control). Cells were cultured in IL-2 and sorted between days 6-13 for EGFRt. At day 16, T cells were stained for exhaustion markers, including CD69.

| Substance | CD69% (CD19.CAR) [%] | CD69% (GD2.CAR) [%] | reduction of exhaustion marker CD69 expression (shCtrl vs shRNA) [%] |
| --- | --- | --- | --- |
| shUSP16 #1: shRNA targeting USP16, 5′-GACTGTAAGACTGACAATAAA-3′ (SEQ ID NO: 8), pSIH backbone or co-expressed in CAR plasmid | 13.70 | 23.05 | 41 |
| shUSP16 #2: shRNA targeting USP16, 5′-TATATCAGTTCACCCGTAAT-3′ (SEQ ID NO: 9), pSIH backbone or co-expressed in CAR plasmid | 27.17 | 27.8 | 40 |
